From patent publication US6821959B1, “Antibiotic-natural polysaccharide polymer adducts” (Istituto Biochimico Pavese Pharma S.p.A, priority 1999, dated 2004)
Converted amounts (≈) assume the structure as drawn.

Key:
[1] = test system: field Staphylococcus aureus (strain B); test: Minimum inhibiting concentration (MIC) in vitro, dilutions in liquid medium, strain B; type: cell-based; conditions: Mueller-Hinton broth pH=7.4, 37° C. 18-24 hours; for MIC: Staphylococcus aureus
Method: (§1) To produce a bacterial growth, a strain of Staphylococcus aureus ATCC 6538 P (strain A) and two strains of field Staphylococcus aureus (strains B and C) were used. […] A drop of broth (dilution 1:10) was added to all test tubes, which were incubated at 37° C. for 18-24 hours. Then, the test tube with the highest dilution free of any turbidity was considered as the one containing the minimum inhibiting concentration (MIC).

[2] = test system: Staphylococcus aureus ATCC 6538 P (strain A); test: Inhibition halos, diffusion method, strain A; type: cell-based
Excerpt: (§2) The inhibition halos were obtained through the diffusion method (Farmacopea Ufftclale Italiana, IX ed., page 315), using a culture medium “Mueller-Hinton Medium Difco, with a low thymine and thymidine content, in sterile Petri plates (9 cm in diameter), with Tryptic Soy Broth (Difco).
(§3) For the sensitivity test, both paper filtering disks, imbibed of a fixed quantity of antibiotic and the relevant adduct disks, having the same total dose, but a lower molar ratio of the active principle were prepared.
(§4) To produce a bacterial growth, a strain of Staphylococcus aureus ATCC 6538 P (strain A) and two strains of field Staphylococcus aureus (strains B and C) were used.
(§5) The culture broths were prepared placing a loop of bacterial coating of an agar culture (12 h) in a test tube containing sterile Tryptic Soy Broth (5 ml), successively incubated at 37° C. for 4 hours.
(§6) When necessary, the suspensions have been diluted with sterile water in order to obtain a turbidity similar to the reference standard (0.5 McFarland). The Mueller-Hinton culture medium (150 ml) was sterilized at 121° C. for 15 minutes; a part of it was positioned on sterile Petri plates (9 cm in diameter), was let to solidify, while another part was cooled at approx. 45° C., was inoculated with the bacterial suspensions as above prepared (15 ml) and poured onto the solidified agar surface (10 ml per plate).
(§7) The sown plates were let dry (open) under a laminar flow hood for 15 minutes, then the disks were placed on their surface (four each plate), i.e. the adduct and antibiotic according to the two desired concentrations. The prepared plates (five each tests) were overturned and incubated at 37° C. for 16 hours. After this interval, the inhibition halos were produced. The results are shown in Table 1, where F.U. indicates the dosage recommended by Farmacopea Ufficiale Italiana, IX ed., vol. 1

[3] = test system: field Staphylococcus aureus (strain C); test: Inhibition halos, diffusion method, strain C; type: cell-based
Excerpt: as §2, §3, §4, §5, §6, §7

[4] = test system: field Staphylococcus aureus (strain B); test: Inhibition halos, diffusion method, strain B; type: cell-based
Excerpt: as §2, §3, §4, §5, §6, §7

[5] = test system: Staphylococcus aureus; test: In vivo activity in mice infected with Staphylococcus aureus (ulcerative dermatitis), bacteriologic test; parameters: species or system albino mice; conditions: for Bacteriologic test after 5 days of therapy, negative / Bacteriologic test after 5 days of therapy, positive: number of subjects; for % of recovery: subjects with post-infective clinical symptoms, after 5 days of therapy
Method: The antibiotics and the respective adducts were used in solution with distilled water for injectables or with purified water for oral use. Common albino mice (average weight: 28 g), previously infected with Staphylococcus aureus (which is not resistant to the examined antibiotics), that had developed ulcerative dermatitis, with localized abscesses and popodermatitis […] were treated with the prepared solutions every 24 hours for 5 days. After this treatment, a bacteriologic checking through isolation was performed, using pads on the animal skin and inoculating the sample drawn from the […] on the plate.

[6] = test system: field Staphylococcus aureus (strain C); test: Minimum inhibiting concentration (MIC) in vitro, dilutions in liquid medium, strain C; type: cell-based; conditions: Mueller-Hinton broth pH=7.4, 37° C. 18-24 hours; for MIC: Staphylococcus aureus
Method: as §1

[7] = test system: Staphylococcus aureus ATCC 6538 P (strain A); test: Minimum inhibiting concentration (MIC) in vitro, dilutions in liquid medium, strain A; type: cell-based; conditions: Mueller-Hinton broth pH=7.4, 37° C. 18-24 hours; for MIC: Staphylococcus aureus, ATCC6538
Method: as §1

[8] = test system: S. aureus Smith BT13; test: Murine model of Staphylococcus aureus subcutaneous abscess; type: in vivo, swiss mice; conditions: for Size scored: abscess size scored 0 to 3 per mouse, group sum; for Total abscesses in 30 mice / Total score (size scored) in 30 mice: cephalosporin, sum of 25, 50, 100 mg/kg groups; for Cured infected mice of 30: parent cephalosporin, 25, 50, 100 mg/kg groups together
Method: 200 Male swiss mice were housed in temperature and humidity controlled animal rooms. The body weight on the day of infection was 25 g (SD 1.2, no 10). Culture media Brain Heart Infusion Broth (Difco) (BHI) and Brain Heart Infusion Agar (Merck) (BHIA) were prepared according to the manufacturer instructions and autoclaved for 15 mins at 121° C. S. aureus Smith BT13 was used at infecting organism. It was stored frozen at −80° C. […] For each test article, a stock solution was prepared by dissolving the drug with 5 ml of water for injectables (5 mg/ml drug concentration for cephalosporins and 3 mg/ml for the adducts). Dilutions 1:2 and 1:4 were prepared using the same vehicles. All solutions were prepared immediately before use. […] At 6 h after inoculation, groups of 10 mice were dosed intraperitoneally with 0.5 ml either of one of the antibiotic solutions, while an untreated control group of 10 mice was injected intraperitoneally with 0.5 ml sterile water. […] On the third day after infection, all mice were sacrificed and autopsied. Presence and size of abscesses were recorded. […] The activity of all compounds was compared by the non parametric Mann-Whitney U test. Statistical significance was for p<0.05.

[9] = Solubility in water; type: physicochemical; conditions: of water, pH=4.8
[10] = disk dose 4 μg (adduct: same total dose), 37° C. 16 hours
[11] = disk dose 8 μg (adduct: same total dose)
[12] = infected subjects without post-infective clinical symptoms (NO)
[13] = subjects with post-infective clinical symptoms (YES), treated every 24 hours for 5 days
[14] = disk dose 0.64 μg (F.U.) (adduct: same total dose)
[15] = disk dose 1.56 μg (F.U.) (adduct: same total dose)
[16] = disk dose 6 μg (adduct: same total dose)

In the case of CC1(C)S[C@@H]2[C@H](NC(=O)[C@H](N)c3ccc(O)cc3)C(=O)N2[C@H]1C(=O)O [Amoxycillin], the MIC [1] is reported as 0.2 µg/mL (≈ 0.547 µM), the “Halos on strain A” value [2, 10] is reported as 12.0 mm and the “Halos on strain A” value [2, 11] is reported as 13.2 mm. The “Halos on strain C” value [3, 10] was 9.7 mm, the “Halos on strain C” value [3, 11] was 10.0 mm and the “Halos on strain B” value [4, 10] was 13.0 mm. The “Halos on strain B” value [4, 11] was 14.0 mm, the “Bacteriologic test after 5 days of therapy, negative” value (from here on “Bacteriologic test … negative”) [5, 12] was 0 and the “Bacteriologic test after 5 days of therapy, positive” value (“Bacteriologic test … positive” below) [5, 12] was 0. The “Bacteriologic test … negative” value [5, 13] was 13, the “Bacteriologic test … positive” value [5, 13] was 0 and the “% of recovery” value [5] was 100%. For the same compound, the MIC [6] was 0.08 µg/mL (≈ 0.219 µM) and the MIC [7] was 0.1 µg/mL (≈ 0.274 µM).
With Cc1nnc(SCC2=C(C(=O)O)N3C(=O)[C@@H](NC(=O)Cn4cnnn4)[C@H]3SC2)s1 [Cefazolin] the MIC [1] was 0.64 µg/mL (≈ 1.41 µM), the “Halos on strain A” value [2, 14] was 11.0 mm and the “Halos on strain A” value [2, 15] was 12.2 mm. The “Halos on strain C” value [3, 14] was 10.1 mm, the “Halos on strain C” value [3, 15] was 10.9 mm and the “Halos on strain B” value [4, 14] was 8.5 mm. The “Halos on strain B” value [4, 15] was 10.1 mm, the Size scored ([8]; cephalosporin 25 mg/kg/dose) was 17 and the Size scored ([8]; cephalosporin 50 mg/kg/dose) was 4. For the same compound, the Size scored ([8]; cephalosporin 100 mg/kg/dose) was 0, the “Total abscesses in 30 mice” value [8] was 8 absc and the “Total score (size scored) in 30 mice” value [8] was 21. For the same compound, the “Cured infected mice of 30” value [8] was 22, the “Bacteriologic test … negative” value [5, 13] was 15 and the “Bacteriologic test … positive” value [5, 13] was 0. For the same compound, the “% of recovery” value [5] was 100%, the MIC [6] was 0.54 µg/mL (≈ 1.19 µM) and the MIC [7] was 0.5 µg/mL (≈ 1.1 µM).
For CO/N=C(\C(=O)N[C@@H]1C(=O)N2C(C(=O)O)=C(COC(C)=O)CS[C@H]12)c1csc(N)n1 [Cefotaxime], the Size scored ([8]; cephalosporin 25 mg/kg/dose) was 11, the Size scored ([8]; cephalosporin 50 mg/kg/dose) was 3 and the Size scored ([8]; cephalosporin 100 mg/kg/dose) was 0. The “Total abscesses in 30 mice” value [8] was 6 absc, the “Total score (size scored) in 30 mice” value [8] was 14 and the “Cured infected mice of 30” value [8] was 24/30.
With CC1=C(C(=O)O)N2C(=O)[C@@H](NC(=O)[C@H](N)C3=CCC=CC3)[C@H]2SC1 [Cefradin] the MIC [1] was 4.8 µg/mL (≈ 13.7 µM), the “Halos on strain A” value [2, 14] was 10.0 mm and the “Halos on strain A” value [2, 15] was 12.1 mm. For the same compound, the solubility [9] was 4000 µg/mL (≈ 11400 µM), the “Halos on strain C” value [3, 14] was 9.7 mm and the “Halos on strain C” value [3, 15] was 10.0 mm. The “Halos on strain B” value [4, 14] was 7.0 mm, the “Halos on strain B” value [4, 15] was 9.0 mm and the “Bacteriologic test … negative” value [5, 13] was 15. The “Bacteriologic test … positive” value [5, 13] was 0, the “% of recovery” value [5] was 100% and the MIC [6] was 4.3 µg/mL (≈ 12.3 µM). The MIC [7] was 4 µg/mL (≈ 11.4 µM).
CO/N=C(\C(=O)N[C@@H]1C(=O)N2C(C(=O)O)=C(CSc3nc(=O)c(=O)[nH]n3C)CS[C@H]12)c1csc(N)n1 [Ceftriaxone] gave a Size scored ([8]; cephalosporin 25 mg/kg/dose) of 17, a Size scored ([8]; cephalosporin 50 mg/kg/dose) of 14 and a Size scored ([8]; cephalosporin 100 mg/kg/dose) of 10. The “Total abscesses in 30 mice” value [8] was 19 absc, the “Total score (size scored) in 30 mice” value [8] was 41 and the “Cured infected mice of 30” value [8] was 11/30.
With Gentamicin the “MIC on strain B” value [1] was 0.15 µg/mL, the “Halos on strain A” value [2, 10] was 12.1 mm and the “Halos on strain A” value [2, 16] was 13.1 mm. The “Halos on strain C” value [3, 10] was 12.8 mm, the “Halos on strain C” value [3, 16] was 13.9 mm and the “Halos on strain B” value [4, 10] was 11.8 mm. For the same compound, the “Halos on strain B” value [4, 16] was 12.0 mm, the “Bacteriologic test … negative” value [5, 12] was 0 and the “Bacteriologic test … positive” value [5, 12] was 0. For the same compound, the “Bacteriologic test … negative” value [5, 13] was 13, the “Bacteriologic test … positive” value [5, 13] was 0 and the “% of recovery” value [5] was 100%. For the same compound, the “MIC on strain C” value [6] was 0.139 µg/mL and the “MIC on strain A” value [7] was 0.125 µg/mL.
